Reference: US20140357654A1, “METHODS OF TREATING SCHIZOPHRENIA WITH PHENYLALANINE ENAMIDE DERIVATIVE INHIBITORS OF a4 INTEGRIN POSSESSING A CYCLOBUTENE GROUP” (AESTUS THERAPEUTICS, INC., priority 2011, published 2014)

Tested on: Male Sprague-Dawley rats
Assay: Reversal of PCP-induced deficit in prepulse inhibition of the acoustic startle response (PPI)
Assay type: in vivo, rat
Settings: for reversal of PCP-induced deficit in PPI, percent PPI averaged for all three prepulse intensities: average of 69, 73 and 81 dB, FIG. 2; for reversal of PCP-induced deficit in PPI, percent PPI averaged for all three prepulse intensities / reversal of PCP-induced deficit in PPI: 50 mg/kg p.o., adult male rats; for effect on pre-pulse inhibition: 10 and 50 mg/kg p.o. 45 min before PCP 2.5 mg/kg i.p.; for reversal of PCP-induced deficit in PPI: prepulse intensity 73 dB, FIG. 1
Experimental: Male Sprague-Dawley rats weighing 210-250 g at time of experiment were used. Animals were housed in a temperature and humidity controlled environment and allowed free access to food and water prior to use.
The amplitude of the inherent startle response varies considerably from animal to animal. The gain of the platforms must be calibrated to ensure that the average startle waveform falls within the desired range. To this end, baseline studies were conducted before the full PPI protocol to allow the calibration of the platforms to be fine-tuned to the startle waveform amplitude. This also allows the animals to become acclimatised to the testing equipment prior to drug administration.
Animals were placed in restraining holders and transferred to the designated chamber. Once all holders were securely fastened to the platform, the Baseline protocol was started. This consists of: • Acclimation Period: Animals were exposed to 5 minutes of 65 decibel (dB) background noise (white noise). • Block 1: 10× startle stimulus alone (white noise, 120 dB, 40 ms) • Block 2: 6× startle stimulus alone • 6× pre-pulse plus startle stimulus (pure tone, 16 dB above background noise, • 20 ms) followed 100 ms later by the startle stimulus. • During this time, the amplitude of the startle responses was recorded. On completion of this protocol, the sensitivity of the equipment was re-calibrated where necessary by adjusting the gain settings.
The same group of rats was again subjected to the Baseline protocol described above. Again, on completion of this protocol, the sensitivity of the equipment was re-calibrated where necessary by adjusting the gain settings. […] These animals were then returned to their home cages for subsequent dosing with compound.
The study compounds were suspended from dry powder stocks in Vehicle (5% Tween 80/5% PEG/saline) and sonicated for 60 minutes at 37° C. to generate suspensions suitable for oral dosing. Control rats received Vehicle by oral gavage. PCP was dissolved in sterile saline (0.9% NaCl).
Rats were dosed with either saline (0.9% NaCl) or 2.5 mg/kg PCP by intraperitoneal injection 15 minutes prior to PPI testing.
(2 S)-2-(2-Bromo-3-oxo-spiro[3.5]non-1-en-1-ylamino)-3-[4-([2,7]naphthyridin-1-ylamino)phenyl]proprionic acid or Clozapine was administered orally by gavage 45 minutes before challenge with PCP or saline. (2S)-2-(2-Bromo-3-oxo-spiro[3.5]non-1-en-1-ylamino)-3-[4-([2,7]naphthyridin-1-ylamino)phenyl]proprionic acid was administered at 10 mg/kg and 50 mg/kg. Clozapine was administered at 5 mg/kg. Vehicle control rats received Vehicle (5% Tween 80/5% PEG/saline) by oral gavage 45 minutes before challenge with PCP or saline.
Exactly 15 minutes after the injection of PCP or saline, the full PPI protocol was started. Animals were exposed to 5 minutes of 65 dB background noise (white noise) as an acclimation period, before the acoustic stimuli began. • Block 1: 6× startle stimulus alone (white noise, 120 dB, 40 ms) • Block 2: 14× startle stimulus • 8× no pulse • 30× pre-pulse (10 each of 4, 8, and 16 dB above the background noise) followed 100 ms later by the startle stimulus. This corresponds to intensities of 69, 73 and 81 dB, respectively. A total of 52 trials were presented to the animals in this block in a pseudo-random order with a variable interval of 8 to 23 seconds, averaging 15 s between trials). • Block 3: 6× startle stimulus alone
Pre-pulse inhibition was calculated from trials in Block 2 by the following formula:
% PPI=(100×[(pulse alone score)−(prepulse+pulse score)]/pulse alone

## O=C(O)[C@H](Cc1ccc(Nc2nccc3ccncc23)cc1)NC1=C(Br)C(=O)C12CCCCC2 [(2S)-2-(2-Bromo-3-oxo-spiro[3.5]non-1-en-1-ylamino)-3-[4-([2,7]naphthyridin-1-ylamino)phenyl]proprionic acid]
50 mg/kg
  reversal of PCP-induced deficit in PPI, percent PPI averaged for all three prepulse intensities: reversal
  reversal of PCP-induced deficit in PPI: reversal
Listed as MGCD-0103, 50 mg/kg
  reversal of PCP-induced deficit in PPI, percent PPI averaged for all three prepulse intensities: significantly (p<0.05) reversed
  reversal of PCP-induced deficit in PPI: significantly (p<0.05) reversed
Prepulse intensity 69 dB (4 dB above background), rats
  effect on pre-pulse inhibition: did not have a statistically significant effect
Prepulse intensity 73 dB (8 dB above background), dose not specified (10 and 50 mg/kg p.o. tested), rats
  ability to attenuate the PCP-induced deficit in PPI: more evident
Prepulse intensity 81 dB (16 dB above background), rats
  effect on pre-pulse inhibition: did not have a statistically significant effect
